What was measured:
[1] = test system: CT26.CL25 colon cancer tumor endothelial cells; assay: Colon CT26 ex vivo model of tumor angiogenesis; type: cell-based, mouse; details: for 48 hrs (morphology observations after 48 hours): Conc. 40 μm; for cytotoxicity at 40 µM: Mus musculus, Endothelial cell, 48 h, read-out: Cell death
Experimental: An ex vivo tumor angiogenesis model was developed to test the efficacy of anti-cancer candidate agents. The following protocol describes the Ex Vivo Tumor Angiogenesis Model.
• 1. The day before the experiment, all necessary tools were sprayed with 70% ethanol and sterilized under UV light overnight, including blade, dissecting and micro-dissecting scissors and […]. 24-well dishes were placed at 4° C. to pre-chill plates and Matrigel was thawed, 24 hours before tumor dissection. • 2. 70% ethanol was sprayed on working bench. Two sterile petri dishes were prepared with 10 ml sterile PBS. The following steps 3 and 4 are necessary for mouse tumor models. For fresh human tumor, steps 3 and 4 are skipped. • 3. The tumor-bearing mice were euthanized. 70% ethanol was sprayed on the mouse and the tumor was removed using sterilized dissecting tools (avoid the fur). The tumor was rinsed in petri dish with sterile PBS to remove ethanol and fur. The tumor was transferred to a new petri dish with PBS for dissection. The dish is placed on ice. • 4. Pre-chilled sterile pipet tips were used to seed regular Matrigel in 24 well plates on ice. Matrigel (30 μl) was dropped in the middle of each well without touching the edge of the well (avoid introducing bubbles if possible). • 5. The tumor was cut in halves using the sterile blade. Healthy tumor tissue that is not necrotic and is within the tumor capsule was identified and isolated. The healthy tumor tissue was cut into small pieces. For instance, a suitable size for the tumor tissue is 0.5 mm (H)×0.5 mm (L)×0.3 mm (D) with a total volume of 0.075 mm^3. • 6. Each tumor piece was gently transferred and embedded in the Matrigel drop in the 24-well plate. The embedded piece was placed in the bottom and middle of each Matrigel drop. The plate was kept on ice all the time. • 7. After seeding the tumor pieces, plates were incubated in a 37° C. cell culture incubator without medium for 10 minutes in order for the Matrigel to solidify. • 8. Endothelial Growth Medium (0.5 ml) was added to each well and incubated at 37° C. with 5% CO2. Treatment was not added until the new endothelial cells was grown out of the tumor or were larger than 3 mm in diameter. This usually takes 4 days for the LL2 Lewis lung cancer model and 7 days for the CT26 colon cancer model. For human tumor models, the growth time is typically 2-3 weeks, depending on the tumor type. Media was changed every 4 days during prolonged culture. Typically, when the tumor tissue grows to 2 mm in diameter, it was good for drug testing. A size of about 3 mm in diameter can make visualization easier. • 9. When the assay was ready to be analyzed for cell death (e.g., 48 hours after drug addition), the dye mixture was prepared by mixing 6 μl of green dye to stain live cells (5 mg/ml Fluorescein diacetate or FDA in DMSO) with 30 μl of red dye (2.5 mg/ml Propidium iodide or PI in PBS) to stain dead cells in an Eppendorf tube. The FDA dye needs to be stored frozen in a −20° C. freezer because it has a labile ester bond. • 10. 1 μl of the dye mixture was added to each well of the 24-well dish. It is usually preferred to do one 24-well dish at a time given the amount of time needed to take pictures (the green dye is not as stable in the cells in the long term). • 11. The dish was gently rocked a few times to mix the dye with the media in the wells and incubate the dish at 37° C. for 10 min (too long incubation can make the green signal too intense). • 12. Each well was washed with 0.5 ml of sterile PBS and then 0.5 ml of phenol red free SFM was added to each well. Alternatively 0.5 ml of regular Endothelial Cell Growth Media can be added to each well if this well needs to be continuously maintained after the experiment. • 13. An inverted microscope using the 2× objective lens was used to observe morphological changes in the experimental wells. • 14. […]

[2] = test system: LL/2 lung cancer tumor endothelial cells; assay: Lung LL2 ex vivo model of tumor angiogenesis; type: cell-based, mouse; details: for 48 hrs (morphology observations): LL/2 tumor endothelial cells; for Cell death: drug treatment for two days, ratio of red area to total endothelial cell area; for cytotoxicity at 20 µM / cytotoxicity at 40 µM: Mus musculus, Endothelial cell, 48 h, read-out: Cell death
In short: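 LL2 mouse tumor fragments (~0.075 mm³) embedded in Matrigel and cultured in endothelial growth medium at 37 °C until endothelial outgrowth (~4 days) before treatment. Cell death assessed e.g. 48 h after drug by fluorescein diacetate (live)/propidium iodide (dead) staining and red/green fluorescence imaging.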

| SMILES | 48 hrs (morphology observations) ([2]; 20 μm) | Cell death ([2]; 20 μm) [%] | 48 hrs (morphology observations) ([2]; 40 μm) | cytotoxicity at 40 µM [2] [%] | further results |
| --- | --- | --- | --- | --- | --- |
| CN1CCCN(c2c(S(=O)(=O)c3ccc([N+](=O)[O-])cc3)cnc3ccc(OC(F)(F)F)cc23)CC1 [Compound 60] | – | – | – | – | 48 hrs (morphology observations after 48 hours) [1]: 0; cytotoxicity at 40 µM [1]: 5% |
| CCCCOc1ccc2ncc(S(=O)(=O)c3ccc(OC)c(OC)c3)c(N(CC)CC)c2c1 [Compound 123] | – | – | – | – | 48 hrs (morphology observations after 48 hours) [1]: 0; cytotoxicity at 40 µM [1]: 20% |
| CCCCCCCCCCCCOc1ccc(S(=O)(=O)c2cnc3ccc([S+](C)[O-])cc3c2N2CCC(N3CCC(N4CCN(C)CC4)CC3)CC2)cc1 (stereo not drawn) [Compound 341] | *** (more than 50% but less than 100% of endothelial cells vesicularize in cell shape) | 80 | – | – | – |
| CCCCCCCCCCCCOc1ccc(S(=O)(=O)c2cnc3ccc([S+](C)[O-])cc3c2N2CCC(N3CCN(CCO)CC3)CC2)cc1 (stereo not drawn) [Compound 344] | * (50% or less of cells vesicularize in cell shape) | – | – | – | cytotoxicity at 20 µM [2]: 10% |
| CCCCCCCCCCCCCCOc1ccc(S(=O)(=O)c2cnc3ccc([S+](C)[O-])cc3c2N2CCC(N3CCC(N4CCN(CCO)CC4)CC3)CC2)cc1 (stereo not drawn) [Compound 345] | *** (more than 50% but less than 100% of endothelial cells vesicularize in cell shape) | 50 | – | – | – |
| CCCCOc1ccc(S(=O)(=O)c2cnc3ccc(SC)cc3c2N2CCC(N3CCCC3CO)CC2)cc1 (stereo not drawn) [Compound 350] | – | – | 0 | 20 | – |
| CCCCOc1ccc(S(=O)(=O)c2cnc3ccc(SC)cc3c2N2CCCN(CCO)CC2)cc1 [Compound 351] | – | – | *** (more than 50% but less than 100% of endothelial cells vesicularize in cell shape) | 100 | – |
| CCCCOc1ccc(S(=O)(=O)c2cnc3ccc(SC)cc3c2N2CCC3C(COCCN3CC(C)C)C2)cc1 (stereo not drawn) [Compound 352] | – | – | *** (more than 50% but less than 100% of endothelial cells vesicularize in cell shape) | 100 | – |
| CCCCOc1ccc(S(=O)(=O)c2cnc3ccc(SC)cc3c2N2CCCN(S(=O)(=O)NCC(F)(F)F)CC2)cc1 [Compound 353] | – | – | 0 | 0 | – |
| CCCCOc1ccc(S(=O)(=O)c2cnc3ccc(SC)cc3c2N2CCCN(CC3(O)CCCC3)CC2)cc1 [Compound 354] | – | – | 0 | 0 | – |
| CCCCOc1ccc(S(=O)(=O)c2cnc3ccc(SC)cc3c2N2CCCN(C3COC3)CC2)cc1 [Compound 355] | – | – | 0 | 0 | – |
| CCCCOc1ccc(S(=O)(=O)c2cnc3ccc(SC)cc3c2N2CCCN(c3nc4ccc(Cl)cc4s3)CC2)cc1 [Compound 356] | – | – | 0 | 0 | – |
| CCCCOc1ccc(S(=O)(=O)c2cnc3ccc(SC)cc3c2N2CCC(=O)N(C)CC2)cc1 [Compound 357] | – | – | 0 | 0 | – |
| CCCCOc1ccc(S(=O)(=O)c2cnc3ccc(SC)cc3c2N2CCCN(C3CCSCC3)CC2)cc1 [Compound 358] | – | – | 0 | 0 | – |
| CCCCOc1ccc(S(=O)(=O)c2cnc3ccc(SC)cc3c2N2CCCN(C3CCS(=O)(=O)CC3)CC2)cc1 [Compound 359] | – | – | 0 | 20 | – |
| CNC(=O)c1ccc2ncc(S(=O)(=O)c3ccc(OC)cc3)c(NC)c2c1 [Compound 360] | – | – | 0 | 20 | – |

| SMILES | 48 hrs (morphology observations) ([2]; 20 μm) | Cell death ([2]; 20 μm) [%] | 48 hrs (morphology observations) ([2]; 40 μm) | cytotoxicity at 40 µM [2] [%] | further results |
| --- | --- | --- | --- | --- | --- |
| CCCCCCCCCCCCOc1ccc(S(=O)(=O)c2cnc3ccc([S+](C)[O-])cc3c2N2CCC(N3CCN(CCO)CC3)CC2)cc1F (stereo not drawn) [Compound 362] | *** (more than 50% but less than 100% of endothelial cells vesicularize in cell shape) | 20 | – | – | – |
| CCCCCCCCCCCCOc1ccc(S(=O)(=O)c2cnc3ccc([S+](C)[O-])cc3c2N2CCC(N3CCC(N4CCCCC4)CC3)CC2)cc1F (stereo not drawn) [Compound 363] | *** (more than 50% but less than 100% of endothelial cells vesicularize in cell shape) | 30 | – | – | – |
| CCCCCCCCCCCCCCOc1ccc(S(=O)(=O)c2cnc3ccc([S+](C)[O-])cc3c2N2CCC(N3CCC(N4CCCC(O)C4)CC3)CC2)cc1F (stereo not drawn) [Compound 364] | *** (more than 50% but less than 100% of endothelial cells vesicularize in cell shape) | – | – | – | cytotoxicity at 20 µM [2]: 30% |
| CCCCCCCCCCCCCCOc1ccc(S(=O)(=O)c2cnc3ccc([S+](C)[O-])cc3c2N2CCC(N3CCN(CCO)CC3)CC2)cc1F (stereo not drawn) [Compound 365] | *** (more than 50% but less than 100% of endothelial cells vesicularize in cell shape) | 20 | – | – | – |
| CCCCCCCCCCCCCCOc1ccc(S(=O)(=O)c2cnc3ccc([S+](C)[O-])cc3c2N2CCC(N3CCC(N4CCCCC4)CC3)CC2)cc1F (stereo not drawn) [Compound 366] | 0 | 10 | – | – | – |
| CCCCCCCCCCCCOc1ccc(S(=O)(=O)c2cnc3ccc([S+](C)[O-])cc3c2N2CCC(N3CCC(N4CCCC(O)C4)CC3)CC2)cc1F (stereo not drawn) [Compound 367] | 0 | – | – | – | cytotoxicity at 20 µM [2]: 5% |
| CCCCCCCCCCCCCCOc1ccc(S(=O)(=O)c2cnc3ccc([S+](C)[O-])cc3c2N2CCC(N3CCC(N4CCN(CCO)CC4)CC3)CC2)cc1F (stereo not drawn) [Compound 368] | – | 20 | – | – | – |
| CCCCCCCCCCCCOc1ccc(S(=O)(=O)c2cnc3ccc([S+](C)[O-])cc3c2N2CCC(N3CCC(N4CCN(C)CC4)CC3)CC2)cc1F (stereo not drawn) [Compound 370] | – | 20 | – | – | – |
| CCCCCCCCCCCCCCOc1ccc(S(=O)(=O)c2cnc3ccc([S+](C)[O-])cc3c2N2CCC(N3CCC(N4CCN(C)CC4)CC3)CC2)cc1F (stereo not drawn) [Compound 371] | *** (more than 50% but less than 100% of endothelial cells vesicularize in cell shape) | 30 | – | – | – |
| CCCCCCCCCCCCOc1ccc(S(=O)(=O)c2cnc3ccc([S+](C)[O-])cc3c2N2CCC(N3CCC(N4CCC(O)CC4)CC3)CC2)cc1F (stereo not drawn) [Compound 372] | – | 20 | – | – | – |
| CCCCCCCCCCCCCCOc1ccc(S(=O)(=O)c2cnc3ccc([S+](C)[O-])cc3c2N2CCC(N3CCC(N4CCC(O)CC4)CC3)CC2)cc1F (stereo not drawn) [Compound 373] | * (50% or less of cells vesicularize in cell shape) | 20 | – | – | – |
| CCCCCCCCCCCCOc1ccc(S(=O)(=O)c2cnc3ccc([S+](C)[O-])cc3c2N2CCC(N3CCC(N4CCC(O)CC4)CC3)CC2)cc1 (stereo not drawn) [Compound 374] | – | 20 | – | – | – |
| CCCCCCCCCCCCCCOc1ccc(S(=O)(=O)c2cnc3ccc([S+](C)[O-])cc3c2N2CCC(N3CCC(N4CCC(O)CC4)CC3)CC2)cc1 (stereo not drawn) [Compound 375] | * (50% or less of cells vesicularize in cell shape) | 50 | – | – | – |
| CCCCCCCCCCCCCCCCOc1ccc(S(=O)(=O)c2cnc3ccc([S+](C)[O-])cc3c2N2CCC(N3CCN(CCO)CC3)CC2)cc1 (stereo not drawn) [Compound 376] | 0 | 10 | – | – | – |
| CCCCCCCCCCCCCCCCOc1ccc(S(=O)(=O)c2cnc3ccc([S+](C)[O-])cc3c2N2CCC(N3CCC(N4CCCCC4)CC3)CC2)cc1 (stereo not drawn) [Compound 377] | 0 | 10 | – | – | – |
| CCCCCCCCCCCCCCCCOc1ccc(S(=O)(=O)c2cnc3ccc([S+](C)[O-])cc3c2N2CCC(N3CCC(N4CCCC(O)C4)CC3)CC2)cc1 (stereo not drawn) [Compound 378] | *** (more than 50% but less than 100% of endothelial cells vesicularize in cell shape) | 30 | – | – | – |

From US20250230226A1, “PLXDC1/PLXDC2 ACTIVATORS AND THEIR USE IN THE TREATMENT OF BLOOD VESSEL DISORDERS” (THE REGENTS OF THE UNIVERSITY OF CALIFORNIA, priority 2019, published 2025)
